Paper PMC10793102 (Acta Pharmaceutica Sinica. B, 2023)
Like-named read-outs stand apart in the source and are kept apart here.

Columns and labels:
FADD−/− Jurkat = assay: Cell viability assay, protection from necroptosis in FADD−/− Jurkat cells; assay type: cell-based; conditions: Homo sapiens, 16 h
L929 = assay: Cell viability assay, protection from necroptosis in L929 cells; assay type: cell-based, mouse; conditions: for EC50: Mus musculus, L929, 16 h; for protective effects against cell death of L929 cells induced by TNFα: TNFα 40 ng/mL, 15 h, Fig. 2A
[1] = tested on: phosphorylation of RIPK1, RIPK3 and MLKL; assay: Western blotting of necroptosis pathway in stimulated HT-29 cells; assay type: cell-based, human; conditions: compounds at 5 μmol/L, 4 h
PK study in mice = assay type: in vivo; conditions: male, ICR, mouse, plasma
[2] = read-out: EC50 FADD−/− Jurkat T + S
[3] = read-out: EC50 FADD−/− Jurkat TNFα

Structure (SMILES)	EC50 (FADD−/− Jurkat; [2])	EC50 (FADD−/− Jurkat; [3])	EC50 (L929; read-out: EC50 L929 T + S)	EC50 (L929; read-out: EC50 L929 TNFα)	also measured
CCn1ncc(C(=O)NCc2ccc(-n3cnc4c(N)ncnc43)cc2)c1Cc1ccccc1 [compound 47]	35 nM	1.2 nM	74 nM	22 nM	–
COc1cc2ncnc(-c3ccc(CNC(=O)c4cnn(C)c4Cc4ccccc4)cc3)c2cc1OC [compound 37]	1500 nM	233 nM	–	–	–
CNC(=O)c1ccc2c(ccn2-c2ccc(CNC(=O)c3cc(Cc4ccccc4)n(C)n3)cc2)c1 [compound 28]	> 10000 nM	> 10000 nM	> 10000 nM	> 10000 nM	–
COc1ccc2c(cnn2-c2ccc(CNC(=O)c3cnn(C)c3Cc3ccccc3)cc2)c1 [compound 36]	128 nM	18 nM	–	–	–
CNC(=O)c1ccc2c(c1)ncn2-c1ccc(CC(=O)N(O)Cc2ccccc2)cc1 [compound 14]	> 10000 nM	3800 nM	98 nM	50 nM	–
Cn1ncc(C(=O)NCc2ccc(-n3cnc4cc(C(=O)NCCN5CCOCC5)ccc43)cc2)c1Cc1ccccc1 [compound 32]	3 nM	0.5 nM	190 nM	32 nM	–
COc1ccc2ncn(-c3ccc(CNC(=O)c4cnn(C)c4Cc4ccccc4)cc3)c2c1 [compound 35]	0.6 nM	0.01 nM	0.4 nM	0.03 nM	–
Cn1ncc(C(=O)NC(C)(C)c2ccc(-n3cnc4c(N)ncnc43)cc2)c1Cc1ccccc1 [compound 56]	28 nM	7.5 nM	–	550 nM	–
Nc1ncnc2c1ncn2-c1ccc(CNC(=O)c2ccc(F)n2Cc2ccccc2)cc1 [compound 51]	1.6 nM	0.1 nM	74 nM	0.9 nM	–
Cn1nc(C(=O)NCc2ccc(-n3ccc4c(N)nccc43)cc2)cc1Cc1ccccc1 [compound 46]	> 10000 nM	361 nM	–	–	–
Cn1ncc(C(=O)NCc2ccc(-n3ccc4c(N)ncnc43)cc2)c1Cc1ccccc1 [compound 42]	8 nM	4.2 nM	0.9 nM	0.1 nM	–
CNC(=O)c1ccc2ncn(-c3ccc(CNC(=O)c4cc(Cc5ccccc5)nn4C)cc3)c2c1 [compound 21]	> 10000 nM	> 10000 nM	> 10000 nM	> 10000 nM	–
Cn1nc(C(=O)NCc2ccc(-n3ncc4c(N)ncnc43)cc2)cc1Cc1ccccc1 [compound 44]	451 nM	71 nM	–	–	–
CN1CCN(CCNC(=O)c2ccc3c(c2)ncn3-c2ccc(CNC(=O)c3cnn(C)c3Cc3ccccc3)cc2)CC1 [compound 31]	0.6 nM	0.01 nM	> 10000 nM	5630 nM	–
Cn1nc2c(c1Cc1ccccc1)C(=O)N(Cc1ccc(-n3cnc4c(N)ncnc43)cc1)C2 [compound 60]	2.9 nM	0.05 nM	116 nM	4.8 nM	–
CNC(=O)c1ccc2c(c1)ncn2-c1ccc(CNC(=O)c2nocc2Cc2ccccc2)cc1 [compound 19]	113 nM	8.1 nM	3350 nM	2140 nM	–
CCN1CCN(Cc2ccc(NC(=O)Cc3ccc(-n4cnc5cc(C(=O)NC)ccc54)cc3)cc2C(F)(F)F)CC1 [compound 11]	> 10000 nM	> 10000 nM	713 nM	190 nM	protective effects against cell death of L929 cells induced by TNFα (L929): protective effects similar to 10; phosphorylation of RIPK1 (Western blot) [1]: diminished the phosphorylation of the upstream effector RIPK1; phosphorylation of RIPK3 and MLKL (Western blot) [1]: comparably diminished the phosphorylation of RIPK3 and the downstream MLKL
CNC(=O)c1ccc2c(c1)ncn2-c1ccc(CNC(=O)c2noc(Cc3ccccc3)n2)cc1 [compound 16]	176 nM	24 nM	–	962 nM	–
CCN1CCN(Cc2ccc(NC(=O)Nc3ccc(-n4cnc5cc(C(=O)NC)ccc54)cc3)cc2C(F)(F)F)CC1 [compound 12]	–	–	–	–	protective effects against cell death of L929 cells induced by TNFα (L929): protective effects similar to 10; phosphorylation of RIPK1 (Western blot) [1]: diminished the phosphorylation of the upstream effector RIPK1; phosphorylation of RIPK3 and MLKL (Western blot) [1]: comparably diminished the phosphorylation of RIPK3 and the downstream MLKL
COc1ccc2c(c1)ncn2-c1ccc(CNC(=O)c2cnn(C)c2Cc2ccccc2)cc1 [compound 34]	0.1 nM	0.002 nM	0.08 nM	0.005 nM	–
CNC(=O)c1ccc2c(c1)ncn2-c1ccc(CNC(=O)c2ncc(Cc3ccccc3)o2)cc1 [compound 18]	380 nM	70 nM	3980 nM	831 nM	–
CCn1nc(C(=O)NCc2ccc(-n3cnc4cc(C(=O)NC)ccc43)cc2)cc1Cc1ccccc1 [compound 22]	43 nM	5.9 nM	–	–	–

Structure (SMILES)	EC50 (FADD−/− Jurkat; [2])	EC50 (FADD−/− Jurkat; [3])	EC50 (L929; read-out: EC50 L929 T + S)	EC50 (L929; read-out: EC50 L929 TNFα)	also measured
Cn1nc(Cl)c(C(=O)NCc2ccc(-n3cnc4c(N)ncnc43)cc2)c1Cc1ccccc1 [compound 48, N-(4-(6-Amino-9H-purin-9-yl)benzyl)-5-benzyl-3-chloro-1-methyl-1H-pyrazole-4-carboxamide]	0.7 nM	0.2 nM	4.6 nM	0.5 nM	AUC(0-inf) (PK study in mice; iv, 1 mg/kg): 1310 ng·h/mL; AUC(0-t) (PK study in mice; iv, 1 mg/kg): 1300 ng·h/mL; MRT inf (PK study in mice; iv, 1 mg/kg): 1.97 h; Vd (PK study in mice; iv, 1 mg/kg): 1.55 L/kg; clearance (PK study in mice; iv, 1 mg/kg): 13.3 mL/min/kg; half-life (PK study in mice; iv, 1 mg/kg): 0.81 h; AUC(0-inf) (PK study in mice; po, 10 mg/kg): 8400 ng·h/mL; AUC(0-t) (PK study in mice; po, 10 mg/kg): 8280 ng·h/mL; Cmax (PK study in mice; po, 10 mg/kg): 3050 ng/mL; MRT inf (PK study in mice; po, 10 mg/kg): 4.05 h; Tmax (PK study in mice; po, 10 mg/kg): 0.42 h; bioavailability (PK study in mice; po, 10 mg/kg): 63.9%; half-life (PK study in mice; po, 10 mg/kg): 1.39 h
Cn1nc(C(=O)NCc2ccc(-n3ccc4c(N)ncnc43)cc2)cc1Cc1ccccc1 [compound 45]	980 nM	137 nM	–	2890 nM	–
CNC(=O)c1ccc2c(c1)ncn2-c1ccc(CNC(=O)c2nnc(Cc3ccccc3)o2)cc1 [compound 17]	1520 nM	185 nM	–	–	–
CNC(=O)c1ccc2c(c1)ncn2-c1ccc(CNC(=O)c2cn(Cc3ccccc3)nn2)cc1 [compound 24]	1590 nM	233 nM	–	–	–
Cn1nc2c(c1Cc1ccccc1)C(=O)N(Cc1ccc(-n3cnc4c(N)ncnc43)cc1)CC2 [compound 59]	2.3 nM	0.2 nM	39 nM	8.4 nM	–
Cn1nc(C(=O)NCc2ccc(-n3cnc4c(N)ncnc43)cc2)cc1Cc1ccccc1 [compound 43]	0.3 nM	0.06 nM	384 nM	25 nM	–
Nc1ncnc2c1ncn2-c1ccc(CN2CCc3cn(Cc4ccccc4)nc3C2=O)cc1 [compound 61]	0.4 nM	0.3 nM	–	–	–
C[C@@H](NC(=O)c1cnn(C)c1Cc1ccccc1)c1ccc(-n2cnc3c(N)ncnc32)cc1 [compound 55]	132 nM	36 nM	219 nM	52 nM	–
COc1cc2ncn(-c3ccc(CNC(=O)c4cnn(C)c4Cc4ccccc4)cc3)c2cc1OC [compound 33]	0.1 nM	0.02 nM	0.4 nM	0.06 nM	–
Nc1ncnc2c1ncn2-c1ccc(CNC(=O)c2ccc(Cl)n2Cc2ccccc2)cc1 [compound 52]	80.6 nM	6.6 nM	–	–	–
Cn1ncc(C(=O)NCc2ccc(-c3ncnc4[nH]ccc34)cc2)c1Cc1ccccc1 [compound 38]	747 nM	152 nM	> 10000 nM	> 10000 nM	–
CNC(=O)c1ccc2c(c1)ncn2-c1ccc(CNC(=O)c2ccc(F)n2Cc2ccccc2)cc1 [compound 26]	17 nM	1.7 nM	34 nM	6 nM	–
CCN1CCN(Cc2ccc(NC(=O)c3ccc(-n4cnc5cc(C(=O)NC)ccc54)cc3)cc2C(F)(F)F)CC1 [compound 13]	–	–	–	–	protective effects against cell death of L929 cells induced by TNFα (L929): relatively weaker
CN(C)CCNC(=O)c1ccc2c(c1)ncn2-c1ccc(CNC(=O)c2cnn(C)c2Cc2ccccc2)cc1 [compound 30]	368 nM	53 nM	> 10000 nM	> 10000 nM	–
Cn1ncc(C(=O)NCc2ccc(-n3cnc4c(N)nccc43)cc2)c1Cc1ccccc1 [compound 40]	2.3 nM	0.3 nM	6.3 nM	1.2 nM	–
CNC(=O)c1ccc2c(cnn2-c2ccc(CNC(=O)c3cc(Cc4ccccc4)n(C)n3)cc2)c1 [compound 29]	> 10000 nM	> 10000 nM	> 10000 nM	> 10000 nM	–
N#Cc1ccc(C(=O)NCc2ccc(-n3cnc4c(N)ncnc43)cc2)n1Cc1ccccc1 [compound 53]	1860 nM	214 nM	–	–	–
CCCn1nc(C(=O)NCc2ccc(-n3cnc4cc(C(=O)NC)ccc43)cc2)cc1Cc1ccccc1 [compound 23]	738 nM	109 nM	–	–	–
CNC(=O)c1ccc2c(c1)ncn2-c1ccc(CNC(=O)c2n[nH]c(Cc3ccccc3)n2)cc1 [compound 15]	–	> 10000 nM	–	–	–
CNC(=O)c1ccc2c(c1)ncn2-c1ccc(CNC(=O)c2nnn(Cc3ccccc3)n2)cc1 [compound 25]	150 nM	24 nM	–	–	–
Cn1ncc(C(=O)NCc2ccc(-n3ncc4c(N)ncnc43)cc2)c1Cc1ccccc1 [compound 41]	6.9 nM	0.4 nM	23 nM	9.9 nM	–
